The target in assay [1] is T1, Human AMPK α2β2γ1 (Homo sapiens, UniProt O43741+P54646).
T1 construct: The full length cDNAs of human AMPK β2 (NM_005399.3) and human AMPK α2 (NM_006252.3); The full length cDNAs of human AMPK β2 (NM_005399.3); the full length cDNA of human AMPK γ1 (NM_002733.3) had been inserted into pET28b(+); 6×His (N); made in house; host or cells: Escherichia coli BL21 CodonPlus (DE3)-RIL
Kind of assay: Test Example 2: activation of phosphorylated human AMPK α2β2γ1 (mobility-shift kinase assay, FL-Peptide 7). The following applies: for EC150: compound concentration showing 150% relative to the control (100%), human AMPK α2β2γ1 phosphorylated with CaMKK2; for Emax: maximum rate of increase in activity within the measurement range, control = 100%. It is filed as biochemical. The gist of the method: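 His-tagged α2β2γ1 expressed in E. coli was pre-phosphorylated by GST-CaMKKβ (25 °C, 1–1.5 h), then exposed to compound for 10 min (1% DMSO). Reaction: pH 7.0 HEPES, ATP and 1.5 μM FL-Peptide 7 (final), 2 h at 25 °C. Mobility-shift conversion gave % activity increase versus compound-free control.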

In assay [2] the test system is phosphorylation of endogenous acetyl-CoA carboxylase (ACC) in L6-GLUT4myc myoblasts. Description: Test Example 3: cell-based ELISA of ACC (Ser79) phosphorylation for AMPK activation in L6-GLUT4myc myoblasts. To be noted: for EC (150% of control): concentration causing 150% relative to vehicle control (100%), 3 hours, phospho-ACC; for Emax: maximum response within varying concentrations, vehicle control = 100%. The method, then: Cell-based assay for AMPK activation potency of compounds was performed with L6-GLUT4myc myoblasts (J. Biol. Chem. 278:17953-62, 2003) in a 96-well or 384-well plate by detecting the phosphorylation of endogenous acetyl-CoA carboxylase (ACC) using cell-based ELISA method. The cells were seeded in a 96-well plate at a density of 2×10^4 cells per well or in a 384-well plate at a density of 3.5×10^3 cells per well in minimum essential media (α-MEM) supplemented with 10% fetal bovine serum, 100 U/mL penicillin, 100 μg/mL streptomycin, 2 μg/mL blasticidin S hydrochloride and 0.5 mg/mL G418 disulfate, and maintained in a humidified atmosphere of 95% air and 5% CO2 at 37° C. for 24 hours. Following the overnight culture with an assay buffer consisting of 0.1% bovine serum albumin (BSA), 100 U/mL penicillin and 100 μg/mL streptomycin, cells were treated with varying concentrations of compounds or vehicle (dimethyl sulfoxide at a final concentration of 0.33%) in the presence of 0.1% BSA or 4% BSA for 3 hours at room temperature. After fixing cells with ice-cold 4% formaldehyde in Tris-buffered saline (TBS) for 30 min, the fixed cells were rinsed with TBS containing 0.1% or 0.01% Triton X-100 (TBS-T) and quenched with 0.6% hydrogen peroxide in TBS-T, and blocked with a blocking reagent (Blocking One P manufactured by Nacalai Tesque). Then, anti-phospho-ACC (Ser79) antibody as the primary antibody (manufactured by Cell Signaling Technology) diluted with TBS-T containing 5% Blocking One P was added to each well and the plate was incubated overnight at 4° C. After rinsing each well with TBS-T, horseradish peroxidase (HRP)-conjugated anti-rabbit IgG as the secondary antibody diluted with TBS-T containing 5% Blocking One P was added to each well and the plate was incubated for 1 hour in 96-well plate or for 5 hours in 384-well plate at room temperature. Each well of the plate was rinsed with TBS-T and added a chemiluminescent reagent (ImmunoStar® LD manufactured by Wako Pure Chemical Industries) for detection of HRP conjugates. Ten minutes later, the luminescence intensity was measured using luminometer (ViewLux or ARVO manufactured by PerkinElmer). The luminescence in the presence of compound was calculated as the rate of change relative to vehicle control, which is in the absence of compound.
(An ELISA detects its analyte on a solid surface through an enzyme-linked reagent.)

The structures appear in SMILES notation. Where two headings read alike, the source gives them in different places. A value given as a limit tells only on which side of the number the result lay.

The text below walks through data of patent US10478425B2, “5-phenylazaindole derivative having AMPK-activating activity” (Shionogi & Co., Ltd., priority 2016, dated 2019).

T1 sequence (P54646 whole entry): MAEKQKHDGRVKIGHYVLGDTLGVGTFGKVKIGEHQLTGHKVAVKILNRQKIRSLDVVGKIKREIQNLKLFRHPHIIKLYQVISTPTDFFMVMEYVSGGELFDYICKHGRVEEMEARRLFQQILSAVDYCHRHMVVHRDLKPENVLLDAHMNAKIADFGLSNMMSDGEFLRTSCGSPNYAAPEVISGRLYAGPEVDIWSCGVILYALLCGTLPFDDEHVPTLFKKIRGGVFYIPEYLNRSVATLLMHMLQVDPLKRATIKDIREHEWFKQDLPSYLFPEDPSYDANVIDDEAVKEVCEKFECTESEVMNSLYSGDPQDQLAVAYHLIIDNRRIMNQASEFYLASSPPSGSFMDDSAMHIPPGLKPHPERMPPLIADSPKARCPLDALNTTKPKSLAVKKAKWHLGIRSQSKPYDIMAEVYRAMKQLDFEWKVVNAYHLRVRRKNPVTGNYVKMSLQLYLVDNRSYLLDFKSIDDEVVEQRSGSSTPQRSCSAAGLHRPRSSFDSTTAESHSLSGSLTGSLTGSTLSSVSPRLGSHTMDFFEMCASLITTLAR
T1 sequence (O43741 whole entry): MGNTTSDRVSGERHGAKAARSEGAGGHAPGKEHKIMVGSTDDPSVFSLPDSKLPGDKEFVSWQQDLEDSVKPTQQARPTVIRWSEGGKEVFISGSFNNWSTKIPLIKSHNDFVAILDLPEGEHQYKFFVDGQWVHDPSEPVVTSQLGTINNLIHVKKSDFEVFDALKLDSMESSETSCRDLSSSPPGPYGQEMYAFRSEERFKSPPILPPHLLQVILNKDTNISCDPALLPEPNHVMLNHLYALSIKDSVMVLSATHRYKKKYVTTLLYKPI
T1 sequence (P54619 whole entry partner): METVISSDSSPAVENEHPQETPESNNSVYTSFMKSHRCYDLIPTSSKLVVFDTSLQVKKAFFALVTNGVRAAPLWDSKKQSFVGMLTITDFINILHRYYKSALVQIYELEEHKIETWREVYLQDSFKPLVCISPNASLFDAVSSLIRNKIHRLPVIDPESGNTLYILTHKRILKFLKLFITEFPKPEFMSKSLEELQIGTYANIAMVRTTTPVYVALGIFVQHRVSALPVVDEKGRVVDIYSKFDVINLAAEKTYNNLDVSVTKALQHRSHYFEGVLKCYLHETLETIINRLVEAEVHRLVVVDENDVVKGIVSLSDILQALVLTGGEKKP

As to `CS(C)(=O)=Nc1ccc(-c2ccc(-c3nc4cc(O[C@@H]5CO[C@H](CO)C5)[nH]c4cc3Cl)cc2)cc1` [Compound I-1-02], in assay [1], the EC150 was found to be 2.2 nM. Besides, the Emax in assay [1] (read-out: Emax) was 510%. Moreover, in assay [2], the EC (150% of control) came to 0.0113 µM and the Emax came to 968%.
Turning to `O[C@@H]1CO[C@H]2[C@@H]1OC[C@H]2Oc1cc2nc(-c3ccc(-c4ccc(OC5CCNC5)cc4)cc3)c(F)cc2[nH]1` (stereo partly shown) [Compound I-1-60], the EC150 in assay [1] is on record as less than 0.051 nM. In addition, in assay [1] (read-out: Emax), the Emax was determined as 486%. In assay [2], the EC (150% of control) came to 0.019 µM and the Emax was 495%.
On the same counts, the results for `CS(C)(=O)=Nc1ccc(-c2ccc(-c3nc4cc(O[C@@H]5CO[C@H](CO)C5)[nH]c4cc3F)cc2)cc1` [Compound I-1-47] are 0.96 nM, 542%, 0.0039 µM and 547%.
In the case of `CNC(=O)Nc1ccc(-c2ccc(-c3nc4cc(O[C@@H]5CO[C@H]6[C@@H]5OC[C@H]6O)[nH]c4cc3F)cc2)cc1` [Compound I-1-08], the EC150 in assay [1] worked out at 4.7 nM. In assay [1] (read-out: Emax), the Emax turned out to be 444%.
On the same counts, the results for `O[C@@H]1CO[C@H]2[C@@H]1OC[C@H]2Oc1cc2nc(-c3ccc(-c4ccc(CN5CCOCC5)cc4)cc3)c(F)cc2[nH]1` [Compound I-2-22] are 5.9 nM and 348%.
For `CC(=O)N(C)c1ccc(-c2ccc(-c3nc4cc(O[C@@H]5CO[C@H]6[C@@H]5OC[C@H]6O)[nH]c4cc3F)cc2)cc1` [Compound I-1-36], the EC150 in assay [1] came to 1.7 nM. The Emax in assay [1] (read-out: Emax) was 437%.
The corresponding values for `O[C@@H]1CO[C@H]2[C@@H]1OC[C@H]2Oc1cc2nc(-c3ccc(-c4ccc(OC5CNCC5F)cc4)cc3)c(F)cc2[nH]1` (stereo partly shown) [Compound I-1-71] are 4.33 nM and 340%.
In the case of `CO[C@@H]1[C@@H](CO)OC[C@H]1Oc1cc2nc(-c3ccc(-c4ccc(N=S(C)(C)=O)cc4)cc3)c(F)cc2[nH]1` [Compound I-2-38], the EC150 in assay [1] worked out at 9.2 nM. Besides, the Emax in assay [1] (read-out: Emax) turned out to be 597%.
Regarding `CCC(=O)NC1CC(c2ccc(-c3nc4cc(O[C@@H]5CO[C@H]6[C@@H]5OC[C@H]6O)[nH]c4cc3F)cc2)C1` (stereo partly shown) [Compound I-1-40], the EC150 in assay [1] is listed as 29 nM. In addition, the Emax in assay [1] (read-out: Emax) is 541%.
On the same counts, the results for `COCCNC(=O)c1ccc(-c2ccc(-c3nc4cc(O[C@@H]5CO[C@H](CO)C5)[nH]c4cc3F)cc2)cc1` [Compound I-2-82] are 0.5 nM and 591%.
With `CN(C)S(=N)(=O)c1ccc(-c2ccc(-c3nc4cc(O[C@@H]5CO[C@H](CO)C5)[nH]c4cc3F)cc2)cc1` (stereo partly shown) [Compound I-2-25], in assay [1], the EC150 is reported as 1.9 nM. Also, the Emax in assay [1] (read-out: Emax) stood at 426%.
The corresponding values for `CCOCCOc1ccc(-c2ccc(-c3nc4cc(O[C@@H]5CO[C@H]6[C@@H]5OC[C@H]6O)[nH]c4cc3F)cc2)cc1` [Compound I-2-61] are 5.1 nM and 562%.
On the same counts, the results for `C[S@@](=O)(=Nc1ccc(-c2ccc(-c3nc4cc(O[C@@H]5CO[C@H]6[C@@H]5OC[C@H]6O)[nH]c4cc3F)cc2)cc1)c1ccccc1` [Compound I-1-19] are 5.8 nM and 477%.
With `COC(=O)NC1CC=C(c2ccc(-c3nc4cc(O[C@@H]5CO[C@H](CO)C5)[nH]c4cc3F)cc2)CC1` (stereo partly shown) [Compound I-2-01], the maximal effect (Emax) in assay [1] (read-out: Emax) was determined as 376%.
As for `CS(C)(=O)=Nc1ccc(-c2ccc(-c3nc4cc(O[C@@H]5CO[C@H](CO)[C@@H]5O)[nH]c4cc3F)cc2)cc1` [Compound I-2-19], the EC150 in assay [1] amounted to 67 nM. The Emax in assay [1] (read-out: Emax) was found to be 192%.
The corresponding values for `CCO[C@H]1[C@@H](CO)OC[C@H]1Oc1cc2nc(-c3ccc(-c4ccc(N=S(C)(C)=O)cc4)cc3)c(F)cc2[nH]1` [Compound I-2-55] are 19 nM and 507%.
The corresponding values for `O[C@@H]1CO[C@H]2[C@@H]1OC[C@H]2Oc1cc2nc(-c3ccc(N4CCC(OC5CCNC5)CC4)cc3)c(F)cc2[nH]1` (stereo partly shown) [Compound I-2-57] are 26 nM and 601%.
On the same counts, the results for `CNS(C)(=O)=Nc1ccc(-c2ccc(-c3nc4cc(O[C@@H]5CO[C@H](CO)C5)[nH]c4cc3F)cc2)cc1` (stereo partly shown) [Compound I-2-46] are 2.8 nM and 699%.
Consider `CN(C)C(=O)OC1CCN(c2ccc(-c3nc4cc(O[C@@H]5CO[C@H]6[C@@H]5OC[C@H]6O)[nH]c4cc3F)cc2)CC1` [Compound I-1-50], for which the EC150 in assay [1] was determined as 23 nM. Further, the Emax in assay [1] (read-out: Emax) was 539%.
The corresponding values for `OCC1(c2ccc(-c3nc4cc(O[C@@H]5CO[C@H]6[C@@H]5OC[C@H]6O)[nH]c4cc3F)cc2)CC1` [Compound I-2-66] are 1.1 nM and 580%.
The corresponding values for `COCCOc1cc(F)c(-c2ccc(-c3nc4cc(O[C@@H]5CO[C@H]6[C@@H]5OC[C@H]6O)[nH]c4cc3F)cc2)c(F)c1` [Compound I-2-76] are 20 nM and 490%.
As for `C[S+]([O-])c1ccc(-c2ccc(-c3nc4cc(O[C@@H]5CO[C@H](CO)C5)[nH]c4cc3F)cc2)cc1` (single isomer, unassigned) [Compound I-2-06], the EC150 in assay [1] came to 0.46 nM. The Emax in assay [1] (read-out: Emax) came out at 621%.
The corresponding values for `CC(=O)Nc1ccc(-c2ccc(-c3nc4cc(O[C@@H]5CO[C@H]6[C@@H]5OC[C@H]6O)[nH]c4cc3F)cc2)cc1` [Compound I-1-35] are 5.9 nM and 432%.
Regarding `COc1ccc(-c2ccc(-c3nc4cc(O[C@@H]5CO[C@H]6[C@@H]5OC[C@H]6O)[nH]c4cc3F)cc2)cc1` [Compound I-2-24], the EC150 in assay [1] is 11 nM. The Emax in assay [1] (read-out: Emax) was 364%.
The corresponding values for `C[S+]([O-])c1ccc(-c2ccc(-c3nc4cc(O[C@@H]5CO[C@H]6[C@@H]5OC[C@H]6O)[nH]c4cc3F)cc2)cc1` (single isomer, unassigned) [Compound I-2-08] are 1.6 nM and 598%.
On the same counts, the results for `OC[C@@H]1C[C@H](Oc2cc3nc(-c4ccc(C5(CO)CC5)cc4)c(F)cc3[nH]2)CO1` [Compound I-2-80] are 2 nM and 558%.
On the same counts, the results for `CN(C)CCOc1ccc(-c2ccc(-c3nc4cc(O[C@@H]5CO[C@H]6[C@@H]5OC[C@H]6O)[nH]c4cc3F)cc2)cc1` [Compound I-1-68] are 2.5 nM and 360%.
Regarding `COCCOC1CCN(c2ccc(-c3nc4cc(O[C@@H]5CO[C@H]6[C@@H]5OC[C@H]6O)[nH]c4cc3F)cc2)CC1` [Compound I-2-34], the EC150 in assay [1] came to 20 nM. In addition, in assay [1] (read-out: Emax), the Emax was 425%.
As to `CC(=O)NC1CCN(c2ccc(-c3nc4cc(O[C@@H]5CO[C@H]6[C@@H]5OC[C@H]6O)[nH]c4cc3F)cc2)CC1` [Compound I-1-31], the EC150 in assay [1] came to 9.5 nM. In addition, in assay [1] (read-out: Emax), the Emax is 539%.
As to `C[S+]([O-])c1ccc(-c2ccc(-c3nc4cc(O[C@@H]5CO[C@H](CO)C5)[nH]c4cc3F)cc2)cc1` (single isomer, unassigned) [Compound I-2-07], in assay [1], the EC150 came to 0.68 nM and the Emax is on record as 638%.
In the case of `O[C@@H]1CO[C@H]2[C@@H]1OC[C@H]2Oc1cc2nc(-c3ccc(-c4ccc(N5CCOCC5)cc4)cc3)c(F)cc2[nH]1` [Compound I-2-20], the EC150 in assay [1] is 2.3 nM. In addition, the Emax in assay [1] (read-out: Emax) stood at 375%.

For orientation: Emax means the greatest response seen or fitted, relative to the assay's reference.
